Laboratory results from patent US8609409B2, “Methods and compositions for cell culture platform” (Clemson University, priority 2009, dated 2013).
Entries after “also recorded” stand apart in the source; their conditions may differ. Where no end group is shown, it is not given here.

Experiments:
[1] = system: Human neural progenitor cells (hNPCs); test: hNPC attachment, morphology and proliferation on gold-coated cover slips; assay type: cell-based; settings: for hNPC attachment: day 1; for state of attached hNPCs: day 10
Protocol: (§1) Human neural progenitor cells were obtained from Millipore (Billerica, Mass.). The stem cell is an immortalized neural progenitor cell line derived from the ventral mesencephalon region of human fetal brain and immortalized by retroviral transduction with the v-myc oncogene. In conventional culture, laminin (20 μg/mL) was used to coat tissue culture plastic-wares at least 2 h before hNPC seeding. Human NPCs were maintained in ReNcell Neural Stem Cell Medium (Millipore) with FGF-2 (20 ng/mL) and EGF (20 ng/mL). Human NPCs were incubated at 37° C. under 5% CO2 and used before passage 5 in this study. For cell adhesion assays, cells were removed from the plate using Accutase, aspirated in growth media, and seeded on peptide or laminin coated substrates at a density of 50, 000 cells/cm^2. For differentiation study, hNPCs were cultured with the medium without FGF-2 and EGF.
The lam-IKVAV and our synthesized peptide were conjugated to gold-coated cover slips. For gold-coating on glass surfaces, cover slips were first cleaned with ethanol by sonication for 30 min. Then gold was coated on the cover slips by a sputter coater. For peptide and laminin coating, the peptide (150 μg/mL or 100 μM) or laminin (20 μg/mL) solutions were applied on the cover slips for at least 2 h. Then the solutions were removed from the slips and washed with phosphate buffered saline (PBS) for three times. Atomic force microscope (AFM) was used to examine the 3D configuration of the peptides on the surface.
To determine whether peptide-functionalized surfaces can support cell attachment and long-term culture and proliferation, hNPCs were cultured in complete growth medium, which contains FGF-2 and EGF to maintain hNPCs in the undifferentiated state. Cells were incubated at 37° C. with media changed every other day as we routinely culture hNPCs in laminin coated substrates. At the day 1, 5, and 10, cells were assayed with CyQuant (Invitrogen). The cell number was generated through a standard curve.
(§2) Morphology of cells was examined by immunostaining of actin. Cells were fixed with 4% (w/v) paraformaldehyde, permeabilized with 0.5% Triton X-100 (t-octylphenoxyplyethoxy-ethanol), and stained with Alexa Fluor-543 Phalloidin for 30 min. The nuclei were counterstained with 1 μg/mL DAPI for 30 min. The cells were imaged using a Leica TCS SP5 laser scanning confocal microscope (Bannockburn, Ill.).

[2] = Rheological characterization of PEG hydrogels conjugated with peptides; assay type: physicochemical; settings: 4-arm thiolated PEG 2% + PEGTA 2%, our peptide 10, 50, 100 μM; for start of gelation process (G′>G″): 37° C., lam-IKVAV 100 μM
Protocol: Rheometer (AR1000, TA Instruments) was used to measure hydrogel mechanical properties, such as storage modulus (G′) and loss modulus (G″), and gelation time^8. Briefly, the time sweep was performed to monitor the in situ gelation at 37° C., recording the temporal evolution of G′ and G″. Frequency sweep test was used to obtain information about the stability of hydrogel structures. The stress sweep was set up by holding the frequency 1 Hz constant while increasing the stress level from 1 to 10 Pa. […] Oscillatory stress sweep allowed determination of G′ of hydrogels.
(§3) The lam-IKVAV peptide and our synthesized peptide of different concentrations were conjugated to PEG hydrogels through addition reaction of peptide cys thiols onto the ends of a PEGTA crosslinker as described before^9. Briefly, peptides containing stock solutions (100 μM) were prepared in the PEGTA stock solution (2% w/w) and stirred for 2 h at room temperature. In the peptide-linker stock solutions, the molar ratio of peptides to PEGTA was 1:20. The reaction kinetics of conjugate addition of cys-containing IKVAV peptides to PEGTA was followed using 5,5′-dithio-bis(2-nitrobenzoic acid) (DTNB) reagent according to previous study^9. Additional PEGTA solutions with lower peptide concentrations of 50 and 10 μM were prepared by diluting the stock solution with peptide-free […] solution (peptide: PEGTA: 1:40 and 1:200, respectively). Then PEGTA solutions containing different concentrations of peptides were added to 4-arm thiolated PEG (2% w/w) solution and mixed thoroughly to form hydrogels.

[3] = system: Human neural progenitor cells (hNPCs); test: hNPCs cultured on the surface of hydrogels conjugated with peptides; assay type: cell-based; settings: for hNPC attachment and proliferation on hydrogel surface: lam-IKVAV 100 μM, our peptide 10 and 100 μM
Protocol: as §3, §2
Human NPCs were cultured on the surface of hydrogels with maintain media for 7 days. Without any bioactive peptide, hNPCs could not attach on the surface of blank PEG hydrogels (FIG. 22B). The cells formed spheres by themselves at the day 3. […] These attached cells proliferated on the surface as the function of time (FIGS. 22C and 22D). […] There was no difference about the morphology of hNPCs between these two groups.

[4] = system: Human neural progenitor cells (hNPCs); test: hNPC differentiation on coated cover slips; assay type: cell-based; settings: 2 weeks, media without FGF-2 and EGF
Protocol: as §1
The differentiation of hNPCs on the tested surfaces was assayed by immunocytochemistry. Human NPCs were cultured for 2 weeks with differentiation media without growth factors FGF-2 and EGF. The cells were fixed with 4% (w/v) paraformaldehyde, treated with 5% goat serum in PBS to block non-specific reactivity and incubated overnight at 4° C. with primary antibodies, such as β III tubulin and glial fibrillary acidic protein (GFAP). After washing with PBS three times, the samples were incubated with the secondary antibodies at room temperature for 3 h. Then the nuclei were counterstained with DAPI for 30 min. The samples were imaged using the same microscope as described before. At least 6 random fields per surface were analyzed for each group.

[5] = system: Human neurospheres (hNPCs); test: Human neurospheres cultured inside hydrogels conjugated with peptides; assay type: cell-based
Protocol: Neurospheres with uniform sizes were fabricated using a robotic fabrication system developed in our lab. Briefly, stamps with micronipple array were designed in SolidWorks and fabricated using ultra-precision lathe. The automatic neurospheres fabricator was built on a TT-C3-4040 robot (IAI Corporation, Shizuoka, Japan) with electric triggered gripper to pick up the stamp and pipette tip uptake and ejection actuator to handle liquid. Agarose solution (2% w/w) was prepared by built-in heating elements in the robot platform. The robot was programmed to first add agarose solution to culture dishes. Then the robot picked up the stamp with micronipple arrays on the bottom and pressed on the agarose solution at room temperature for 2 min. Then the highly uniform size microwells were formed in the agarose gel. Human NPC suspension was uptake by the robot and added to the culture well with microwell arrays. After 24 h of culture at 37° C. and 5% CO2, uniform sized neurospheres were formed for this study use. For 3D culture, human neurospheres with uniform size were mixed with hydrogel precursor solutions before hydrogel formation.
Viability of cells inside hydrogels was examined using LIVE/DEAD Viability Kit, which is a two color fluorescent assay based on differential permeability of live and dead cells and allows preservation of the distinctive staining pattern for a couple of hours after post-fixation with 4% (w/v) glutaraldehyde. Live cells were stained with green fluorescent SYTO 10; and dead cells with compromised cell membranes were stained with red fluorescent ethidium homodimer-2. […]
We quantified the cell migration by taking measurements of the distance between the edge of spheres and the cell bodies at their outer perimeters. FIG. 26 presents quantification of cell migration from neurospheres cultured inside hydrogels conjugated with lam-IKVAV of 100 μM and our novel IKVAV peptide of different concentrations of 0, 10, 50, and 100 μM at the day 3, 7, and 21. […]

[6] = system: in vitro cell cultures; test: safety and cytotoxic profile of genipin; assay type: cell-based
Description: Chitosan and gelatin are two naturally occurring polymers. Chitosan is a polysaccharide formed by cross linkage of multiple monosaccharide units. It has active acetyl groups available for cross linkage. At acidic pH, chitosan is able to undergo polymerization. Gelatin is a peptide polymer and chemically derived from denatured collagen. […] Chitosan and gelatin co-polymer can be created by mixing chitosan with gelatin using a standard and well known procedure that involves creating acidic pH for chitosan polymerization followed by mixing with heated and stirred gelatin solution. However there are two disadvantages of this approach—high osmolarity of the resultant solution (>500 mM) and acidic pH. There are also concerns for cytotoxicity to biological tissues at such high concentrations. These disadvantages render the use of this copolymer useless for clinical application, In the present invention, chitosan and gelatin were cross linked by two different approaches—the first was a covalent linkage using genipin followed by using ionic cross linkage using glycerol phosphate. Genipin is a plant derived cross linker and quite cheap. […] This concentration of genipin was added to chitosan and gelatin mixture. Genipin is able to covalently link both the saccharide and amine groups available in chitosan and gelatin, respectively. This creates a polysaccharide-peptide cross linkage. […]

Row | Molecule | hNPC morphology / spreading [1] | hNPC attachment [1] | state of attached hNPCs [1] | start of gelation process (G′>G″) [2] | hNPC attachment and proliferation on hydrogel surface [3] | cells differentiated into astrocytes (GFAP+) [4] | cells differentiated into neurons (β III tubulin+) [4] | attachment and proliferation compared with laminin coated surface [1] | cells differentiated into astrocytes (GFAP+) ([4]; listed as our short peptide) | storage modulus G′ ([2]; at 2 h) | hNPC morphology on hydrogel surface ([3]; day 7, 10 and 100 μM) | hNPC attachment and proliferation on hydrogel surface ([3]; listed as our short peptide) | peptide density with maximum enhancement of cell migration ([5]; conjugated to PEG hydrogels) | distance of hNSCs migration from neurospheres ([5]; peptide 10 μM, day 3, 7 and 21) | effect on cell migration from neurospheres ([5]; peptide concentration higher than 10 μM) | concentration found to be safe [6]
1 | CSRARKQAASIKVAVSADR [lam-IKVAV, commercial laminin IKVAV peptide from American Peptide Company, reference compound] | preferred to aggregate together | very few cells attached | floated off the surface | 30 min | aggregated together; also recorded: did not support any hNPC attachment | – | – | – | – | – | – | – | – | – | – | –
2 | laminin: mouse laminin, whole ECM protein used as coating (20 μg/mL) [reference compound] | – | – | – | – | – | 74% | 11% | – | – | – | – | – | – | – | – | –
3 | Ac-Cys-Cys-Arg-Arg-Ile-Lys-Val-Ala-Val-Trp-Leu-Cys (Ac-CCRRIKVAVWLC-OH; cysteine pairing not given here) [our novel peptide] | spread more evenly | significantly much more cells attached compared to lam-IKVAV | totally confluent on the whole surface | 40 min | improved hNPC attachment, spreading and proliferation | 33% | 54% | no significant difference | about 30% | about 600 Pa | displayed spreading cytoskeletons | cells attached at the day 1 | 10 µM | 2 fold | inhibitory effects on cell migration | –
4 | COC(=O)C1=CO[C@@H](O)[C@@H]2C(CO)=CC[C@H]12 [genipin] | – | – | – | – | – | – | – | – | – | – | – | – | – | – | – | 0.4 mM
